Values quoted from earlier work as cited in patent US7674912B2, “Pro-drugs of N-thiazol-2-yl-benzamide derivatives” (priority 2005, dated 2010).
Read-outs that look alike come from different tables or passages of the source.

How the values were obtained:
[1] = system: unilateral 6-OHDA (6-hydroxydopamine) lesioned mice and rats; details: elicited by a subthreshold dose of levodopa, unilateral 6-OHDA lesioned mice and rats
mice = details: for total immobility time: mouse tail suspension test
[2] = system: MPTP treated mice and 6-OHDA-lesioned rats
[3] = system: non-human primates treated with MPTP
[4] = mice previously screened for having high immobility time

SMILES | contralateral rotations [1] | immobility (mice; [4]) | immobility (mice; mice selectively bred for their helplessness) | total immobility time (mice) | functional loss of dopaminergic nerve terminals in the striatum [2] | gliosis induced around degenerating neurons [2] | dyskinesias ([3]; in vivo) | motor impairment induced by MPTP ([3]; non-human primates)
Nc1nc2c(cnn2CCc2ccccc2)c2nc(-c3ccco3)nn12 [SCH58261, 2-(2-furanyl)-7-(2-phenylethyl)-7H-pyrazolo[4,3-e][1,2,4]triazolo[1,5-c]pyrimidin-5-amine] | enhance contralateral rotations | reduce immobility | reduced immobility | reduced the total immobility time | – | – | – | –
CCn1c(=O)c2c(nc(/C=C/c3ccc(OC)c(OC)c3)n2C)n(CC)c1=O [KW-6002, 8-[(1E)-2-(3,4-dimethoxyphenyl)ethenyl]-1,3-diethyl-3,7-dihydro-7-methyl-1H-purine-2,6-dione] | enhance contralateral rotations | – | – | reduced the total immobility time | prevented functional loss of dopaminergic nerve terminals in the striatum | prevented gliosis | without causing dyskinesias | significantly improves motor impairment
Nc1nc(NCCc2ccc(O)cc2)nc2nc(-c3ccco3)nn12 [ZM241385, 4-(2-[7-amino-2-(2-furyl)[1,2,4]triazolo[2,3-a][1,3,5]triazin-5-ylamino]-ethyl)phenol] | – | reduce immobility | – | – | – | – | – | –
